The source of these data is patent publication US20080182851A1, “ACETYLENE DERIVATIVES AS STEAROYL COA DESATURASE INHIBITORS” (Glenmark Pharmaceuticals S.A., priority 2006, published 2008).

The first assay addresses T1, human SCD1 enzyme (Homo sapiens, UniProt O00767).
T1 sequence (O00767 1-359): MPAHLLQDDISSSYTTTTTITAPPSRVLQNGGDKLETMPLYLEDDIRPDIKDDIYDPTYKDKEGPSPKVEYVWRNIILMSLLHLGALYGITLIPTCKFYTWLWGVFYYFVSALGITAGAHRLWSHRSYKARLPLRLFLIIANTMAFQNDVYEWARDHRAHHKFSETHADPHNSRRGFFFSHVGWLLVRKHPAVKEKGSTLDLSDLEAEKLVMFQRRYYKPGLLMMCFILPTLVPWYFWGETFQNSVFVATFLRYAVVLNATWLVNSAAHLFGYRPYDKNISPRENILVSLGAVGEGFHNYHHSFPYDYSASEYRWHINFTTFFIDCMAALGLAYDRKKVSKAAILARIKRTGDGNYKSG
The experiment in a line: Tritiated water release assay (conversion of radiolabeled stearoyl-CoA to oleoyl-CoA). In kind it is biochemical. The note with it: 10 μM concentration of test compounds; microsomal SCD1, 3H stearoyl CoA, 37° C. 30 minutes; percent of control reaction. As for the experimental part: The in-vitro activity of the compounds of the present invention against stearoyl coenzyme desaturase was determined by following conversion of radiolabeled-stearoyl-CoA to oleoyl-CoA using human SCD1 enzyme using a previously published assay procedure with some modifications (Barbara R Talamo and Konrad Bloch, Analytical Biochemistry, 1969, 29, 300-304). This assay protocol is only illustrative and is not meant to limit to the scope of the present invention.
In this assay the microsomal SCD1 enzyme desaturates its substrate, Stearoyl CoA (purchased from American Radiochemicals Ltd.) which is tritiated at C9 and C10 positions. Test compounds were dissolved in dimethylsulfoxide and tested at 10 μM final concentration. Before substrate addition, the test compound or standard reference compound (conjugated linoleic acid at 100 μM final concentration) were pre-incubated in reaction buffer with the enzyme for 10 minutes at 30° C. with shaking. Reaction buffer was prepared as described in literature (Obukowicz et al. JPET, 1998, 287, 157-166) except that the MgCl2, ATP (purchased from Sigma) and CoA (purchased from Sigma) concentrations were changed to 4.9 mM, 7.2 mM and 0.54 mM respectively. The desaturation reaction was initiated by addition of 0.5 μCi of ^3H stearoyl CoA and incubated at 37° C. for 30 minutes with shaking. A control reaction was set without any test compound/reference inhibitor to capture maximum enzymatic activity in the assay. Inhibition of enzyme activity was calculated as a percent of this control reaction giving maximum catalysis and the results are given in Table 5.
Table 5: Tritiated water release assay at 10 μM substrate concentration *Conjugated Linoleic acid was used as a reference standard
`Oc1ccc(C#Cc2ccc(N3CCC(Oc4ccccc4F)CC3)nn2)cc1` [Example 77]: the inhibition at 10 µM was found to be 97%.

The assay is the same for the next values; noted with them: 10 μM concentration of test compounds; microsomal SCD1, 3H stearoyl CoA, 37° C. 30 minutes; percent of control reaction; read-out: % Inhibition.
Turning to `O=C(c1ccccc1C(F)(F)F)N1CCN(c2ccc(C#Cc3cnccn3)cn2)CC1` [Example 45], the inhibition at 10 µM was found to be 43%.

On to `O=C(c1ccccc1C(F)(F)F)N1CCN(c2ccc(C#Cc3ccc4[nH]ccc4c3)cn2)CC1` [Example 49, 4-{5-[2-(1H-5-Indolyl)-1-ethynyl]-2-pyridyl}piperazino-2-trifluoromethylphenyl-methanone], for which the inhibition at 10 µM worked out at 91%.

For the compound `CC(C)(C)C(=O)Oc1cccc(C#Cc2ccc(N3CCC(Oc4ccccc4F)CC3)nn2)c1` [Example 87, 3-[{6-[4-(2-Fluorophenoxy)piperidin-1-yl]pyridazin-3-yl}ethynyl]phenyl pivalate], the inhibition at 10 µM was 27%.

Consider `O=C(c1ccccc1C(F)(F)F)N1CCN(c2ccc(C#CCOC3CCCC3)cn2)CC1` [Example 9, 4-[5-(3-Cyclopentyloxy-1-propynyl)-2-pyridyl]piperazino-2-trifluoromethylphenyl-methanone], for which the inhibition at 10 µM is 86%.

In the case of `O=C(c1ccccc1C(F)(F)F)N1CCN(c2ccc(C#CCOc3ccc(F)cc3)cn2)CC1` [Example 11, 4-[5-(3-(4-Fluorophenoxy)-1-propynyl)-2-pyridyl]piperazino-2-trifluoromethylphenyl-methanone], the inhibition at 10 µM was 63%.

Regarding `NC(=O)c1cccc(C#Cc2ccc(N3CCC(Oc4cccnc4)CC3)nn2)c1` [Example 96], the inhibition at 10 µM was found to be 30%.

As for `[O-][n+]1cccc(C#Cc2ccc(N3CCC(Oc4ccccc4F)CC3)nc2)c1` [Example 74], the inhibition at 10 µM stood at 44%.

Take `O=C(c1cc(Cl)ccc1Cl)N1CCN(c2ccc(C#Cc3cccc(O)c3)cn2)CC1` [Example 28]: the inhibition at 10 µM turned out to be 98%.

For the compound `O=C(c1ccccc1C(F)(F)F)N1CCN(c2ccc(C#Cc3cccc(CO)c3)cn2)CC1` [Example 33, 4-{5-[2-(3-Hydroxymethylphenyl)-1-ethynyl]-2-pyridyl}piperazino-2-trifluoromethyl-phenylmethanone], the inhibition at 10 µM is 20%.

For `CCCC#Cc1ccc(N2CCN(C(=O)c3ccccc3C(F)(F)F)CC2)nc1` [Example 17, 4-[5-(1-Pentynyl)-2-pyridyl]piperazino-2-trifluoromethylphenylmethanone], the inhibition at 10 µM turned out to be 40%.

As for `Fc1ccccc1OC1CCN(c2ccc(C#Cc3ccc(OCCN4CCOCC4)cc3)nn2)CC1` [Example 79], the inhibition at 10 µM is 37%.

In the case of `O=C(c1ccccc1C(F)(F)F)N1CCN(c2ncc(C#Cc3ccc(O)cc3)cn2)CC1` [Example 42, 4-{5-[2-(4-Hydroxyphenyl)-1-ethynyl]-2-pyrimidinyl}piperazino-2-trifluoromethyl-phenylmethanone], the inhibition at 10 µM turned out to be 92%.

Consider `CCCCS(=O)(=O)NCC#Cc1ccc(N2CCN(C(=O)c3ccccc3C(F)(F)F)CC2)nc1` [Example 16, N1-(3-{6-[4-(2-Trifluoromethylbenzoyl)piperazino]-3-pyridyl}-2-propynyl)-1-butane sulfonamide], for which the inhibition at 10 µM was 42%.

For `CC(=O)Oc1ccc(C#Cc2ccc(N3CCC(Oc4cc(Cl)ccc4Cl)CC3)nn2)cc1` [Example 92, 4-[{6-[4-(2,5-Dichlorophenoxy)piperidin-1-yl]pyridazin-3-yl}ethynyl]phenyl acetate], the inhibition at 10 µM came to 97%.

Consider `Oc1ccc(C#Cc2ccc(NCCOc3ccccc3F)nn2)cc1` [Example 100], for which the inhibition at 10 µM was found to be 63%.

As for `Oc1ccc(C#Cc2ccc(N3CCC(Oc4ccccc4F)CC3)nn2)cc1F` [Example 82], the inhibition at 10 µM turned out to be 98%.

For `COc1c(F)ccc(C#Cc2ccc(N3CCC(Oc4ccccc4F)CC3)nn2)c1F` [Example 94, 3-[(2,4-Difluoro-3-methoxyphenyl)ethynyl]-6-[4-(2-fluorophenoxy)piperidin-1-yl]pyridazine], the inhibition at 10 µM came to 12%.

Consider `Oc1ccc(C#Cc2ccc(N3CCC(Oc4ccccc4F)C3)nn2)cc1` (stereo in doubt) [Example 71, 4-[{6-[(3S)-3-(2-Fluorophenoxy)azolan-1-yl]pyridazin-3-yl}ethynyl]phenol], for which the inhibition at 10 µM worked out at 95%.

On to `O=C(c1ccccc1C(F)(F)F)N1CCN(c2ccc(C#Cc3ccc(F)c(F)c3)nn2)CC1` [Example 40, 4-{6-[2-(3,4-Difluorophenyl)-1-ethynyl]-3-pyridazinyl}piperazino-2(trifluoromethyl)-phenylmethanone], for which the inhibition at 10 µM was 81%.

Turning to `CC(=O)Oc1ccc(C#Cc2ccc(N3CC(Oc4ccccc4F)C3)nn2)cc1` [Example 66], the inhibition at 10 µM came to 94%.

`O=C(c1ccccc1C(F)(F)F)N1CCN(c2ccc(C#Cc3ccc(C(F)(F)F)cc3)nn2)CC1` [Example 41, 2-Trifluoromethylphenyl-4-{6-[2-(4-trifluoromethylphenyl)-1-ethynyl]-3-pyridazinyl}-piperazinomethanone]: the inhibition at 10 µM came to 93%.

`Oc1ccc(C#Cc2ccc(N3CCC(Oc4ccccc4F)CC3)nn2)cc1` [Example 76, 4-(2-{6-[4-(2-Fluorophenoxy)piperidino]-3-pyridazinyl}-1-ethynyl)phenol]: the inhibition at 10 µM was 100%.

Turning to `CC(C)(C)C#Cc1ccc(N2CCN(C(=O)c3cc(Cl)ccc3Cl)CC2)nc1` [Example 19, 2,5-Dichlorophenyl-4-[5-(3,3-dimethyl-1-butynyl)-2-pyridyl]piperazinomethanone], the inhibition at 10 µM turned out to be 14%.

Take `O=C(c1ccccc1C(F)(F)F)N1CCN(c2ncc(C#Cc3cccc(O)c3)cn2)CC1` [Example 43]: the inhibition at 10 µM was 98%.

Take `COC(=O)c1ccc(C#Cc2ccc(N3CCN(C(=O)c4ccccc4C(F)(F)F)CC3)nc2)cc1` [Example 32]: the inhibition at 10 µM amounted to 35%.

On to `Oc1ccc(C#Cc2ccc(N3CCC(Nc4ccccc4F)CC3)nn2)cc1` [Example 102, 4-{6-[4-(2-Fluorophenylamino)piperidin-1-yl]pyridazin-3-yl}ethynylphenol], for which the inhibition at 10 µM came to 96%.

Consider `O=C(c1ccccc1C(F)(F)F)N1CCN(c2ccc(C#CCO)nn2)CC1` [Example 3, 4-[6-(3-Hydroxy-1-propynyl)-3-pyridazinyl]piperazino-2-trifluoromethylphenyl-methanone], for which the inhibition at 10 µM came out at 51%.

For the compound `Oc1cccc(C#Cc2cnc(N3CCC(Oc4ccccc4F)CC3)nc2)c1` [Example 98], the inhibition at 10 µM worked out at 95%.

`O=C(c1ccccc1C(F)(F)F)N1CCN(c2ncc(C#Cc3ccc(N4CCCS4(=O)=O)cc3)cn2)CC1` [Example 51]: the inhibition at 10 µM worked out at 22%.

`N#Cc1ccccc1OC1CCN(c2ccc(C#Cc3cccc(O)c3)nn2)CC1` [Example 88]: the inhibition at 10 µM stood at 95%.

In the case of `Oc1cccc(C#Cc2ccc(N3CCC(Oc4ccccc4F)CC3)nn2)c1` [Example 86, 3-(2-{6-[4-(2-Fluorophenoxy)piperidino]-3-pyridazinyl}-1-ethynyl)phenol], the inhibition at 10 µM was 100%.

Turning to `O=C(c1ccccc1C(F)(F)F)N1CCN(c2ccc(C#Cc3ccc(F)cc3)nn2)CC1` [Example 39], the inhibition at 10 µM amounted to 75%.

Regarding `Oc1ccc(C#Cc2ccc(N3CCC(Oc4ccc(Br)cc4F)CC3)nn2)cc1` [Example 81], the inhibition at 10 µM was 95%.

For `CCOC(=O)c1cc(C#Cc2ccc(N3CCN(C(=O)c4ccccc4C(F)(F)F)CC3)nc2)ccc1OC(C)=O` [Example 34], the inhibition at 10 µM amounted to 29%.

Consider `Fc1ccccc1CN1CCN(c2ccc(C#CC3CCCCO3)nn2)CC1` (stereo not drawn) [Example 58], for which the inhibition at 10 µM was determined as 6%.

Regarding `COc1cccc(C#Cc2ccc(N3CCN(C(=O)c4cc(Cl)ccc4Cl)CC3)nc2)c1` [Example 31, 2,5-Dichlorophenyl-4-{5-[2-(3-methoxyphenyl)-1-ethynyl]-2-pyridyl}piperazino-methanone], the inhibition at 10 µM was 21%.

As for `Fc1cccc(C#Cc2ccc(N3CCC(Oc4ccccc4C(F)(F)F)CC3)nn2)c1` [Example 89, 3-[2-(3-Fluorophenyl)-1-ethynyl]-6-[4-(2-trifluoromethylphenoxy)piperidino]pyridazine], the inhibition at 10 µM is 82%.

For `CC(C)(O)C#Cc1cnc(N2CCN(C(=O)c3ccccc3C(F)(F)F)CC2)nc1` [Example 4, 4-[5-(3-Hydroxy-3-methyl-1-butynyl)-2-pyrimidinyl]piperazino-2-trifluoromethylphenyl-methanone], the inhibition at 10 µM was found to be 22%.

Broadly, the inhibition is the relative decrease from the control value, in per cent.
